Reference: ChEMBL document CHEMBL1201862, “PubChem BioAssay data set” (2004)
Values joined by “and” are separate entries in the source; they are usually repeats but may differ in a detail not shown here. Identical values can stand only once.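 Interpolation was linear, between the two tested concentrations surrounding the appropriate level; five concentrations were tested over 48 hours in 96-well plates. At the GI50, growth is halved.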 Active and inactive are the calls of the source. Rule as the data show it: active = GI50 up to about 1.1 µM and inactive = higher. Non-standard residues stand in square brackets, D forms with d. Square brackets hold non-standard residues; d marks the D form. Residues, ends and D or L forms follow the SMILES beside them. Peptide text beside a SMILES is read from it. * marks the point of attachment. ξ: configuration not given here. *: point of attachment. ξF = NC(Cc1ccccc1)C(=O)O; Ac5c = NC1(C(=O)O)CCCC1; Cbz = O=C(OCc1ccccc1)*; Boc = CC(C)(C)OC(=O)*; Aib = CC(C)(N)C(=O)O; tBu = CC(C)(C)*

Tests used:
Assay in all cases: inhibition of tumour cell growth, NCI panel, 48 h
EKVX = system: EKVX
HCT-15 = system: HCT-15
IGROV-1 = system: IGROV-1
M14 = system: M14
MCF7 = system: MCF7
MOLT-4 = system: MOLT-4
Malme-3M = system: Malme-3M
NCI-H23 = system: NCI-H23
OVCAR-5 = system: OVCAR-5
OVCAR-8 = system: OVCAR-8
SF-268 = system: SF-268
SK-MEL-28 = system: SK-MEL-28
SR = system: SR
SW-620 = system: SW-620
T47D = system: T47D
TK-10 = system: TK-10
U-251 = system: U-251
UACC-62 = system: UACC-62
HCC 2998 = system: HCC 2998
SF-539 = system: SF-539

SMILES | GI50 (EKVX) | GI50 (HCT-15) | GI50 (IGROV-1) | GI50 (M14) | GI50 (MCF7) | GI50 (MOLT-4) | GI50 (Malme-3M) | GI50 (NCI-H23) | GI50 (OVCAR-5) | GI50 (OVCAR-8) | GI50 (SF-268) | GI50 (SK-MEL-28) | GI50 (SR) | GI50 (SW-620) | GI50 (T47D) | GI50 (TK-10) | GI50 (U-251) | GI50 (UACC-62) | GI50 (HCC 2998) | GI50 (SF-539)
O=C1CCC(c2ccccc2)(c2ccccc2)CC1 | 92.3 µM (inactive) | 47.4 µM | > 100 µM (inactive) | 65.8 µM (inactive) | 46 µM (inactive) | 30.6 µM (inactive) | > 100 µM (inactive) | 57.7 µM (inactive) | > 100 µM (inactive) | > 100 µM (inactive) | > 100 µM (inactive) | > 100 µM (inactive) | 37.8 µM (inactive) | 82.2 µM (inactive) | 41.5 µM (inactive) | 85.9 µM (inactive) | > 100 µM (inactive) | > 100 µM (inactive) |  | 
CCOC(=O)c1c2c(n(-c3ccc(OC)cc3)c1C)C(=O)C(=O)c1ccccc1-2 | 2.01 µM (inactive) | 3.65 µM | 2.52 µM (inactive) | 1.59 µM (inactive) | 0.693 µM (active) |  | 0.241 µM (active) | 0.873 µM (active) | 1.88 µM (inactive) | 0.687 µM (active) | 1.64 µM (inactive) | 2.12 µM (inactive) |  | 1.24 µM (inactive) | 1.01 µM (active) | 1.72 µM (inactive) | 1.22 µM (inactive) | 1.6 µM (inactive) | 1.73 µM (inactive) | 0.711 µM (active)
COC(=O)C1=C(C)NC2=C(C(=O)c3ccccc32)C1c1c[nH]nc1-c1ccccc1 (configuration not stated) | 16.1 µM (inactive) | 62.5 µM | 20.2 µM (inactive) | > 100 µM (inactive) | 44.7 µM (inactive) | 24.8 µM (inactive) | 25.2 µM (inactive) | > 100 µM (inactive) | > 100 µM (inactive) | 38.1 µM (inactive) | 26.2 µM (inactive) | 49.4 µM (inactive) | 24.4 µM (inactive) | 59.3 µM (inactive) | 90.6 µM (inactive) |  | 72.1 µM (inactive) | 35.6 µM (inactive) |  | 29.9 µM (inactive)
CN(C)CCCn1c(Cc2ccccc2)nc2cc(C(F)(F)F)ccc21 | 30.1 µM (inactive) | 24.8 µM | 30.2 µM (inactive) | 15.5 µM (inactive) | 20.5 µM (inactive) | 19.8 µM (inactive) | 17.7 µM (inactive) | 29.5 µM (inactive) | 78.7 µM (inactive) | 39.7 µM (inactive) | 53.8 µM (inactive) | 19.1 µM (inactive) |  | 26.1 µM (inactive) | 19.9 µM (inactive) | 28.8 µM (inactive) | 20 µM (inactive) | 18.8 µM (inactive) |  | 
Cn1c2c(c3c(=O)[nH]ncc31)CCc1ccccc1-2 | 12.9 µM (inactive) | 24.8 µM | 19 µM (inactive) | 18.6 µM (inactive) | 21.6 µM (inactive) | 21.8 µM (inactive) | 31.3 µM (inactive) | 26.1 µM (inactive) | 45.6 µM (inactive) | 57.3 µM (inactive) | 31.2 µM (inactive) | 26.7 µM (inactive) | 20.5 µM (inactive) | 34.1 µM (inactive) | 28.6 µM (inactive) | 17.7 µM (inactive) | 33.5 µM (inactive) |  |  | 46.5 µM (inactive)
Cc1ccc(/C=C2/N/C(=N\N=C/C(O)C(O)C(O)CO)NC2=O)cc1 (configuration not stated) | > 100 µM (inactive) | 89.9 µM and 79.1 µM | > 100 µM (inactive) | > 100 µM (inactive) | > 100 µM (inactive) |  |  | > 10 µM (inactive) | > 100 µM (inactive) | > 100 µM (inactive) | > 100 µM (inactive) | > 100 µM (inactive) | > 100 µM (inactive) | > 100 µM (inactive) | 79.4 µM (inactive) | > 100 µM (inactive) | > 100 µM (inactive) |  |  | > 100 µM (inactive)
CCOC(=O)c1sc2c(c1OC(=O)c1ccc(Cl)cc1Cl)c(=O)n(-c1ccccc1)c(=S)n2-c1ccccc1 | 17.1 µM (inactive) | 5.08 µM | 4.06 µM (inactive) | 29.4 µM (inactive) | 24.5 µM (inactive) | 3.17 µM (inactive) | 22.9 µM (inactive) | 4.91 µM (inactive) | 35.4 µM (inactive) | 6.11 µM (inactive) | 8.02 µM (inactive) | > 76.4 µM (inactive) |  | 9.64 µM (inactive) | > 35.5 µM (inactive) | 17 µM (inactive) | 5.21 µM (inactive) | 20 µM (inactive) | 24.5 µM (inactive) | 25.9 µM (inactive)
O=C(O)C12CCC(CC1=O)C2 (configuration not stated) | > 100 µM (inactive) | > 100 µM | > 100 µM (inactive) | > 100 µM (inactive) | > 100 µM (inactive) | > 100 µM (inactive) | > 100 µM (inactive) | > 100 µM (inactive) | > 100 µM (inactive) | > 100 µM (inactive) | > 100 µM (inactive) | > 100 µM (inactive) | > 100 µM (inactive) | > 100 µM (inactive) | > 100 µM (inactive) | > 100 µM (inactive) | > 100 µM (inactive) | > 100 µM (inactive) |  | 
CC(C)OC(=O)NNc1cc(Cl)ccc1Cl | 30.8 µM (inactive) | 91.2 µM | 55.5 µM (inactive) | > 100 µM (inactive) | 57.9 µM (inactive) | 0.0611 µM (active) | 35.6 µM (inactive) | > 100 µM (inactive) | > 100 µM (inactive) | > 100 µM (inactive) | 44.8 µM (inactive) | > 100 µM (inactive) |  | > 100 µM (inactive) | 42 µM (inactive) | 36.6 µM (inactive) | > 100 µM (inactive) | 43.7 µM (inactive) | 61 µM (inactive) | > 100 µM (inactive)
C=CCN(c1cc(OC)c2[nH]c(C(=O)OCC)c(C)c2c1[N+](=O)[O-])S(C)(=O)=O | 18.5 µM (inactive) | 25.6 µM | 33.7 µM (inactive) | 30.8 µM (inactive) | 22.4 µM (inactive) | 12.6 µM (inactive) | 15.7 µM (inactive) | 28.4 µM (inactive) | 29.3 µM (inactive) | 28.6 µM (inactive) | 26.4 µM (inactive) | 43.2 µM (inactive) |  | 34.3 µM (inactive) | 15.2 µM (inactive) | 54.1 µM (inactive) | 16.1 µM (inactive) | 26.1 µM (inactive) | 45.5 µM (inactive) | 33.6 µM (inactive)
O=C1C2C(c3ccccc3)NC(c3ccccc3)C1C(c1ccccc1)NC2c1ccccc1 (configuration not stated) | > 100 µM (inactive) | > 100 µM | > 100 µM (inactive) | > 100 µM (inactive) | > 100 µM (inactive) | > 100 µM (inactive) | > 100 µM (inactive) | > 100 µM (inactive) | > 100 µM (inactive) | > 100 µM (inactive) | > 100 µM (inactive) | > 100 µM (inactive) | > 100 µM (inactive) | > 100 µM (inactive) | > 100 µM (inactive) | > 100 µM (inactive) | > 100 µM (inactive) | > 100 µM (inactive) |  | > 100 µM (inactive)
CC(C)CCCC(C)[C@H]1CC[C@H]2N/C(=N/c3ccccc3)CCC[C@]12C (some centres not stated) |  | 1.07 µM | 1.61 µM (inactive) | 1.87 µM (inactive) | 1.79 µM (inactive) | 1.64 µM (inactive) | 2.67 µM (inactive) | 1.72 µM (inactive) |  | 0.893 µM (active) | 2.06 µM (inactive) | 2.09 µM (inactive) | 1.77 µM (inactive) | 3.21 µM (inactive) | 3.09 µM (inactive) | 2.62 µM (inactive) | 1.82 µM (inactive) | 1.85 µM (inactive) |  | 1.61 µM (inactive)
CC(C)(NC(=O)OCc1ccccc1)C(=O)NC(Cc1ccccc1)C(=O)O (configuration not stated) (Cbz-[Aib]-[ξF]-OH) |  | > 100 µM | > 100 µM (inactive) | > 100 µM (inactive) | > 100 µM (inactive) | > 100 µM (inactive) | > 100 µM (inactive) | > 100 µM (inactive) | > 100 µM (inactive) | > 100 µM (inactive) |  | > 100 µM (inactive) |  | > 100 µM (inactive) | > 100 µM (inactive) |  | > 100 µM (inactive) | > 100 µM (inactive) |  | > 100 µM (inactive)
CC(OC(C)(C)C)C(NC(=O)C(CCCCNC(=O)OC(C)(C)C)NC(=O)C(Cc1c[nH]c2ccccc12)NC(=O)C(N)Cc1ccccc1)C(=O)NC(Cc1ccccc1)C(=O)NC1(C(=O)O)CCCC1 (configuration not stated) (H-FWK(Boc)T(tBu)F[Ac5c]-OH; configuration not given here) | > 100 µM (inactive) | > 100 µM | > 100 µM (inactive) | > 100 µM (inactive) | > 100 µM (inactive) | > 100 µM (inactive) | > 100 µM (inactive) | > 100 µM (inactive) | > 100 µM (inactive) | > 100 µM (inactive) | > 100 µM (inactive) | > 100 µM (inactive) |  | > 100 µM (inactive) | 79.4 µM (inactive) | > 100 µM (inactive) | > 100 µM (inactive) | > 100 µM (inactive) | > 100 µM (inactive) | > 100 µM (inactive)
O=C1C(CO)=C[C@@H](O)[C@H]2O[C@@H]12 [EPOXYDON] | > 100 µM (inactive) | > 100 µM | > 100 µM (inactive) | > 100 µM (inactive) | 21.7 µM (inactive) | > 100 µM (inactive) | > 100 µM (inactive) | 65.6 µM (inactive) | > 100 µM (inactive) | > 100 µM (inactive) | > 100 µM (inactive) | > 100 µM (inactive) | > 100 µM (inactive) | 37.9 µM (inactive) | > 100 µM (inactive) |  | 61.5 µM (inactive) | > 100 µM (inactive) |  | 
